Reference: PMC4512242 (Nature chemical biology, 2015)

Legend:
LynD = assay: 31P NMR of ATP turnover by LynD; assay type: biochemical, Lyngbya sp. PCC 8106; conditions: with and without PatE′
E. coli YcaO = conditions: absence of substrate, ref [30]; cited from earlier work

For `Nc1ncnc2c1ncn2[C@@H]1O[C@H](COP(=O)(O)OP(=O)(O)OP(=O)(O)O)[C@@H](O)[C@H]1O` [ATP], the “products of ATP turnover” value (LynD) is listed as “AMP (not ADP), pyrophosphate (PPi) and phosphate” and the ATP hydrolysis products (E. coli YcaO) is listed as “hydrolyzed ATP to AMP and pyrophosphate”.
